Source: patent US20090005395A1 (Solvay Pharmaceuticals, B.V., priority 2007, published 2009)
Where two headings read alike, the source gives them in different places.

Assays:
[1] = Reduction of sildenafil N-oxide in the human colon model TIM2; assay type: in vitro ADME
Description: The human colon model TIM2 (TNO Intestinal Model 2) is a dynamic model for the human large intestine that simulates in vivo conditions. It is an artificial digestive system that has been validated by many studies (Minekus, 1999).
Suspended in 1% methylcellulose, sildenafil-N-oxide (1 mg) was inserted into the lumen (120 ml) of the TIM2 model (see above, Minekus, 1999). Samples from the lumen and the dialysate (the latter being a model for the vascular bed of the intestines) were taken at various time intervals, and analyzed for sildenafil-N-oxide and sildenafil.

[2] = Plasma pharmacokinetics of sildenafil and its N-oxide; assay type: in vivo; conditions: male, NMRI, mouse, mice; for Kp: brain, read-out: Brain/plasma ratio; for AUC: read-out: AUC0→end; for AUC(0-inf): Tend = ∞
Description: Liquid Chromatography-Tandem Mass Spectrometry (LC-MS/MS) was performed using a Sciex API4000 LC-MS/MS. […] Compound peak area was used for quantification. The calibration curves were fitted to the model y=A+Bx+Cx^2 (y is the peak area of the analyte, x is the nominal calibration level in ng/ml (plasma) or ng/g (brain), A is the intercept, B is the slope and C is the description of the curvature). 1/x^2 weighing was used. LC-MS/MS system performance was monitored using a reference solution injected at standard intervals. […] The Lower Limit Of Quantification (LLOQ) was established at 1.00 ng/ml and 5.00 ng/brain, for plasma and brain samples, respectively. Reversed phase HPLC was performed using gradient elution by a Hypersil BDS C18 100×4.6 mm 3 μm analytical column, with a temperature of 45° C. and a flow of 1.00 ml/min: […]

[3] = Plasma and brain concentrations of N-desmethylsildenafil (pilot experiment); assay type: in vivo, male NMRI mice; conditions: mice, i.v. or p.o.; for the N-oxide only observed after oral dosing
Description: Sildenafil and its N-oxide were analyzed in mouse plasma and brain samples using a generic bioanalytical method comprising protein precipitation and HPLC with MS/MS detection.
Sample preparation: Proteins in 100 μl plasma were precipitated with acetonitrile, and 5 μl samples of the obtained solution were analyzed. Complete brains were homogenized and centrifuged, and 10 μl samples of the supernatant were analyzed.
Liquid Chromatography-Tandem Mass Spectrometry (LC-MS/MS) was performed using a Sciex API4000 LC-MS/MS. Quantification of the samples was done using extracted calibration samples, treated the same as the study samples in the range of 1-5000 ng/ml and 5.0-5000 ng/brain for plasma and brains samples, respectively. Compound peak area was used for quantification. The calibration curves were fitted to the model y=A+Bx+Cx^2 (y is the peak area of the analyte, x is the nominal calibration level in ng/ml (plasma) or ng/g (brain), A is the intercept, B is the slope and C is the description of the curvature). 1/x^2 weighing was used. LC-MS/MS system performance was monitored using a reference solution injected at standard intervals. The method use for testing was not validated in detail, therefore the reported concentrations were good estimations. The Lower Limit Of Quantification (LLOQ) was established at 1.00 ng/ml and 5.00 ng/brain, for plasma and brain samples, respectively. […]

PDE-I = test: In vitro inhibition of phosphodiesterases (CEREP): PDE-I; conditions: bovine brain
PDE-V = PDE-V (Homo sapiens, UniProt O76074); test: In vitro inhibition of phosphodiesterases (CEREP): PDE-V
PDE-II = PDE-II (Homo sapiens, UniProt O00408); test: In vitro inhibition of phosphodiesterases (CEREP): PDE-II
Sequence of PDE-II (O00408 whole entry): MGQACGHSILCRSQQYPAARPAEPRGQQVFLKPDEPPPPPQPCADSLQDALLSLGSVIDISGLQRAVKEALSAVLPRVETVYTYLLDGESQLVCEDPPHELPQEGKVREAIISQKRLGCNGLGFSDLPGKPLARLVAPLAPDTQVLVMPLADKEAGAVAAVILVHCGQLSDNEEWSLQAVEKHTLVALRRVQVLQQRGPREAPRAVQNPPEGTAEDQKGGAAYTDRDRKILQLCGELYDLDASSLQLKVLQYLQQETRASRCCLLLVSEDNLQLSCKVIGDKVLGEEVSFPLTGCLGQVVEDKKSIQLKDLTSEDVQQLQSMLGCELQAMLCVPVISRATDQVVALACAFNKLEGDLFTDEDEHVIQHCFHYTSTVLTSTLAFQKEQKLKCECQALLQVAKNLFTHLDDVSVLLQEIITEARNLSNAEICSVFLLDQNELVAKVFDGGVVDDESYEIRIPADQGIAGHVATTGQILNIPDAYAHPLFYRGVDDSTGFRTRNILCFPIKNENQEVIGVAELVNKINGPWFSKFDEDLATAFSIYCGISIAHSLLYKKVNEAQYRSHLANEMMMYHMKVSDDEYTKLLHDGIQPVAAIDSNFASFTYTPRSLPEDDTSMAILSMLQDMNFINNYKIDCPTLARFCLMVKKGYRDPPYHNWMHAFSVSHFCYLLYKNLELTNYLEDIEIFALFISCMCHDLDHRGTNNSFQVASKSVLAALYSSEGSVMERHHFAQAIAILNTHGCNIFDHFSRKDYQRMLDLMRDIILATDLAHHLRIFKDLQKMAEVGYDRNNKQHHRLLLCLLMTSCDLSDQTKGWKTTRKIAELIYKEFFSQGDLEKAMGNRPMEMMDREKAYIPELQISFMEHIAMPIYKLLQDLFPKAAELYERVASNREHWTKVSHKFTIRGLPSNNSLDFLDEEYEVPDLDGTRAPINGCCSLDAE

PDE-III = PDE-III (Homo sapiens, UniProt Q14432); test: In vitro inhibition of phosphodiesterases (CEREP): PDE-III
Sequence of PDE-III (Q14432 674-1093 limits assumed): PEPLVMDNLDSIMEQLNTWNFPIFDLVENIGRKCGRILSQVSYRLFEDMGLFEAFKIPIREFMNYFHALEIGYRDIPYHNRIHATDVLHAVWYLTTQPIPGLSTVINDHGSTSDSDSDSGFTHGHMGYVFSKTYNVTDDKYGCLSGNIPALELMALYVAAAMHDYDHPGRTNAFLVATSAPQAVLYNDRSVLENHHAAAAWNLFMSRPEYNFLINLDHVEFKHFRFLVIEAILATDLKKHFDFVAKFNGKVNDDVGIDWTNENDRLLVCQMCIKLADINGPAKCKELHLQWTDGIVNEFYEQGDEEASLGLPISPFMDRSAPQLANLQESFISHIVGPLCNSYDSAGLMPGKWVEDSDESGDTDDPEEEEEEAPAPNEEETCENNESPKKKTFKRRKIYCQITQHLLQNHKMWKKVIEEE

[4] = TIM2, 1 mg in 1% methylcellulose into lumen (120 ml), 0 h
[5] = TIM2, 1 mg into lumen (120 ml), 2 h
[6] = TIM2, 1 mg into lumen (120 ml), 4 h
[7] = TIM2, 1 mg into lumen (120 ml), 6 h
[8] = TIM2, 1 mg into lumen (120 ml), 8 h
[9] = TIM2, 1 mg into lumen (120 ml), 24 h

CCCc1nn(C)c2c(=O)[nH]c(-c3cc(S(=O)(=O)N4CC[N+](C)([O-])CC4)ccc3OCC)nc12 [Sildenafil-N-oxide, 1-[[3-(6,7-dihydro-1-methyl-7-oxo-3-propyl-1H-pyrazolo[4,3-d]pyrimidin-5-yl)-4-ethoxyphenyl]sulfonyl]-4-methyl-4-oxido-piperazine]
Sildenafil-N-oxide Dialysate concentration [1, 4]: <1.0 ng/mL | Sildenafil-N-oxide Lumen concentration [1, 4]: <1.0 ng/mL | Sildenafil-N-oxide Dialysate concentration [1, 5]: 33 ng/mL | Sildenafil-N-oxide Lumen concentration [1, 5]: 6.6 ng/mL | Sildenafil-N-oxide Dialysate concentration [1, 6]: <1.0 ng/mL | Sildenafil-N-oxide Lumen concentration [1, 6]: 4.7 ng/mL | Sildenafil-N-oxide Dialysate concentration [1, 7]: <1.0 ng/mL | Sildenafil-N-oxide Lumen concentration [1, 7]: 4.9 ng/mL | Sildenafil-N-oxide Dialysate concentration [1, 8]: <1.0 ng/mL | Sildenafil-N-oxide Lumen concentration [1, 8]: 6.7 ng/mL | Sildenafil-N-oxide Dialysate concentration [1, 9]: <1.0 ng/mL | Sildenafil-N-oxide Lumen concentration [1, 9]: 2.7 ng/mL | reduction to sildenafil in TIM2 ([1]; within 2 hours after dosing): nearly quantitatively reduced to sildenafil | Kp ([2]; iv, i.v. 1 mg/kg): 0.5 | Kp ([2]; po, p.o. 10 mg/kg): 2.5 | Tmax ([2]; iv, plasma, i.v. 1 mg/kg): 0 h | half-life ([2]; iv, plasma, i.v. 1 mg/kg): 0.4 h | AUC ([2]; iv, plasma, i.v. 1 mg/kg, Tend = 3 hrs): 125 ng·h/mL | AUC(0-inf) ([2]; iv, plasma, i.v. 1 mg/kg): 125 ng·h/mL | Cmax ([2]; iv, plasma, i.v. 1 mg/kg, extrapolated to T0 (time zero), read-out: Cmax (C0)): 495 ng/mL | Vd ([2]; plasma, iv, i.v. 1 mg/kg): 5 L/kg | clearance ([2]; plasma, iv, i.v. 1 mg/kg): 133 mL/min/kg | bioavailability ([2]; plasma, po, 10 mg/kg, i.v.): 1.5% | Tmax ([2]; po, plasma, p.o. 10 mg/kg): 1 h | half-life ([2]; po, plasma, p.o. 10 mg/kg): 5.1 h | AUC ([2]; po, plasma, p.o. 10 mg/kg, Tend = 24 hrs): 10.8 ng·h/mL | AUC(0-inf) ([2]; po, plasma, p.o. 10 mg/kg): 18.8 ng·h/mL | Cmax ([2]; po, plasma, p.o. 10 mg/kg, read-out: Cmax): 2.7 ng/mL | metabolism to N-desmethylsildenafil [3]: metabolized to N-desmethylsildenafil | pIC50 PDE-I (PDE-I): 5.8 | IC50 (PDE-V): 0.2 µM | activity relative to the parent compound sildenafil (PDE-V): about one tenth | fold less potent than sildenafil (PDE-V; from Table 5): 10 fold | IC50 (PDE-II): > 10 µM | IC50 (PDE-III): > 10 µM
